Assay results published in PubChem BioAssay AID330 (DTP/NCI, 2004).
Where “and” joins values, the source holds several entries; their conditions need not be identical. Equal entries are not always repeated. Inconclusive results and toxic doses are left out. The calls were made as follows: active = survival T/C of 150% or more; inactive = T/C below 125% in these data.

Test system: P388 leukemia ip, CD2F1 mice, survival T/C
Assay: NCI In Vivo Anticancer Drug Screen. Data for tumor model P388 Leukemia (intraperitoneal) in CD2F1 (CDF1) mice
Conditions: endpoint: median survival time, higher = longer survival
How it was run: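 Mice carrying the transplanted tumor received test compound or vehicle. Survival was recorded in each group, and the value is the treated-group measurement divided by that of the vehicle-treated control group.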

[1] = dose: 100.0 mg/kg/injection, schedule: Q01DX001 (ip), vehicle: Klucel (hydroxypropylcellulose) (HPC)
[2] = dose: 25.0 mg/kg/injection, schedule: Q01DX009 (ip), vehicle: saline with Tween-80
[3] = dose: 50.0 mg/kg/injection, schedule: Q01DX009 (ip), vehicle: saline with Tween-80
[4] = dose: 100.0 mg/kg/injection, schedule: Q01DX009 (ip), vehicle: saline with Tween-80
[5] = dose: 200.0 mg/kg/injection, schedule: Q01DX009 (ip), vehicle: saline with Tween-80
[6] = dose: 50.0 mg/kg/injection, schedule: Q01DX005 (ip), vehicle: Klucel (hydroxypropylcellulose) (HPC)
[7] = dose: 100.0 mg/kg/injection, schedule: Q01DX005 (ip), vehicle: Klucel (hydroxypropylcellulose) (HPC)
[8] = dose: 200.0 mg/kg/injection, schedule: Q01DX005 (ip), vehicle: Klucel (hydroxypropylcellulose) (HPC)
[9] = dose: 50.0 mg/kg/injection, schedule: Q01DX005 (ip), vehicle: saline with Tween-80
[10] = dose: 100.0 mg/kg/injection, schedule: Q01DX005 (ip), vehicle: saline with Tween-80
[11] = dose: 50.0 mg/kg/injection, schedule: Q01DX009 (ip), vehicle: saline
[12] = dose: 100.0 mg/kg/injection, schedule: Q01DX009 (ip), vehicle: saline
[13] = dose: 60.0 mg/kg/injection, schedule: Q01DX005 (ip), vehicle: saline with Tween-80
[14] = dose: 120.0 mg/kg/injection, schedule: Q01DX005 (ip), vehicle: saline with Tween-80
[15] = dose: 240.0 mg/kg/injection, schedule: Q01DX005 (ip), vehicle: saline with Tween-80

Measured: T/C

Clc1ccc(-n2ccc(=N/N=C/c3ccc(Cl)c(Cl)c3)cc2)cc1
inactive: dose: 25.0 mg/kg/injection, schedule: Q01DX001 (ip), vehicle: Klucel (hydroxypropylcellulose) (HPC) 100 % of control | dose: 50.0 mg/kg/injection, schedule: Q01DX001 (ip), vehicle: Klucel (hydroxypropylcellulose) (HPC) 100 % of control | [1] 100 % of control and 96 % of control

C=CCCN(c1ccc(C(=O)OCC)cc1)S(=O)(=O)c1ccc(C)cc1
inactive: [2] 100 % of control | [3] 110 % of control | [4] 100 % of control | [5] 108 % of control

CCSC/C(=N\Nc1ccc([N+](=O)[O-])cc1[N+](=O)[O-])c1ccccc1
inactive: dose: 100.0 mg/kg/injection, schedule: Q04DX003 (ip), vehicle: saline with Tween-80 100 % of control | dose: 200.0 mg/kg/injection, schedule: Q04DX003 (ip), vehicle: saline with Tween-80 95 % of control | dose: 400.0 mg/kg/injection, schedule: Q04DX003 (ip), vehicle: saline with Tween-80 90 % of control

CC(Cc1ccccc1)NC(=O)c1cccnc1 (stereo not drawn)
inactive: [6] 98 % of control | [7] 90 % of control | [8] 99 % of control

CC[C@H]1C[C@H](Cc2ccccc2)CC[C@H]1N1CCCC1
inactive: [9] 101 % of control | [10] 104 % of control

C/C(=C\C(=O)c1cccc(F)c1)N1CCN(c2ccc(F)cc2)CC1
inactive: [6] 100 % of control | [7] 96 % of control | [8] 100 % of control

CCOC(=O)c1ccccc1Nc1c(C(=O)OCC)cnc2cc3c(cc12)OCO3
inactive: dose: 60.0 mg/kg/injection, schedule: Q01DX005 (ip), vehicle: Klucel (hydroxypropylcellulose) (HPC) 106 % of control | dose: 120.0 mg/kg/injection, schedule: Q01DX005 (ip), vehicle: Klucel (hydroxypropylcellulose) (HPC) 98 % of control | dose: 240.0 mg/kg/injection, schedule: Q01DX005 (ip), vehicle: Klucel (hydroxypropylcellulose) (HPC) 97 % of control

C[CH2][Pb]([CH2]C)([CH2]C)[O]C(=O)COc1ccccc1
inactive: dose: 1.5 mg/kg/injection, schedule: Q04DX003 (ip), vehicle: Klucel (hydroxypropylcellulose) (HPC) 100 % of control | dose: 3.0 mg/kg/injection, schedule: Q04DX003 (ip), vehicle: Klucel (hydroxypropylcellulose) (HPC) 100 % of control | dose: 6.0 mg/kg/injection, schedule: Q04DX003 (ip), vehicle: Klucel (hydroxypropylcellulose) (HPC) 106 % of control

O=[N+]([O-])c1cc2c(cc1S(=O)(=O)O)C1C(C3C2C2(Cl)C(Cl)=C(Cl)C3(Cl)C2(Cl)Cl)C2(Cl)C(Cl)=C(Cl)C1(Cl)C2(Cl)Cl (stereo not drawn)
inactive: [11] 101 % of control | [12] 98 % of control

CCC[CH2][Sn]([CH2]CCC)([O][P+](=O)C[Si](C)(C)c1ccccc1)[O][P+](=O)C[Si](C)(C)c1ccccc1 (stereo not drawn)
inactive: [13] 108 % of control | [14] 115 % of control | [15] 122 % of control

CCCCCCCCCCCCCCCCCC(=O)OCC(=O)OCC(=O)[C@]1(O)Cc2c(O)c3c(c(O)c2[C@@H](OC2CC(N)C(O)C(C)O2)C1)C(=O)c1c(OC)cccc1C3=O (stereo partly drawn)
inactive: dose: 6.25 mg/kg/injection, schedule: Q01DX009 (ip), vehicle: water 93 % of control and 98 % of control
active: dose: 0.39 mg/kg/injection, schedule: Q01DX009 (ip), vehicle: water 150 % of control | dose: 0.78 mg/kg/injection, schedule: Q01DX009 (ip), vehicle: water 157 % of control | dose: 1.56 mg/kg/injection, schedule: Q01DX009 (ip), vehicle: water 180 % of control and 194 % of control | dose: 3.13 mg/kg/injection, schedule: Q01DX009 (ip), vehicle: water 200 % of control and 203 % of control

CC(=O)Nc1c(Nc2ccc3c(=O)[nH]ccc3c2C)cc[nH]c1=O
inactive: [13] 102 % of control | [14] 104 % of control | [15] 103 % of control

Cc1ccc(S(=O)(=O)N/N=C2\COC(C)C2)cc1 (stereo not drawn)
inactive: [9] 93 % of control | [10] 91 % of control

COc1ccc(-c2cc(-c3ccccc3)c(-c3ccccc3)nn2)cc1
inactive: [3] 96 % of control | [4] 101 % of control | [5] 96 % of control

CCOC(=O)NNC1=C(CC(=O)c2ccccc2)C(=O)CC(C)(C)C1
inactive: dose: 50.0 mg/kg/injection, schedule: Q01DX009 (ip), vehicle: Klucel (hydroxypropylcellulose) (HPC) 101 % of control | dose: 100.0 mg/kg/injection, schedule: Q01DX009 (ip), vehicle: Klucel (hydroxypropylcellulose) (HPC) 102 % of control | dose: 200.0 mg/kg/injection, schedule: Q01DX009 (ip), vehicle: Klucel (hydroxypropylcellulose) (HPC) 109 % of control

CC1(C)N=C(N)N=C(N)N1c1cc(C(F)(F)F)cc(C(F)(F)F)c1
inactive: dose: 7.5 mg/kg/injection, schedule: Q01DX005 (ip), vehicle: Klucel (hydroxypropylcellulose) (HPC) 99 % of control | dose: 15.0 mg/kg/injection, schedule: Q01DX005 (ip), vehicle: Klucel (hydroxypropylcellulose) (HPC) 94 % of control | dose: 30.0 mg/kg/injection, schedule: Q01DX005 (ip), vehicle: Klucel (hydroxypropylcellulose) (HPC) 105 % of control

COC1=CC(=O)N/C1=C(\OC)c1ccccc1
inactive: [13] 90 % of control | [14] 93 % of control | [15] 99 % of control

Br[CH](Br)[Hg][c]1ccccc1
inactive: [1] 93 % of control | dose: 200.0 mg/kg/injection, schedule: Q01DX001 (ip), vehicle: Klucel (hydroxypropylcellulose) (HPC) 96 % of control

O=C1C2C=CC(c3ccccc32)N1/C=C/c1ccccc1 (stereo not drawn)
inactive: dose: 100.0 mg/kg/injection, schedule: Q04DX003 (ip), vehicle: Klucel (hydroxypropylcellulose) (HPC) 101 % of control | dose: 200.0 mg/kg/injection, schedule: Q04DX003 (ip), vehicle: Klucel (hydroxypropylcellulose) (HPC) 99 % of control | dose: 400.0 mg/kg/injection, schedule: Q04DX003 (ip), vehicle: Klucel (hydroxypropylcellulose) (HPC) 97 % of control

OCC1OC(Oc2ccc(O)cc2)C(O)C(O)C1O (stereo not drawn)
inactive: dose: 4.5 mg/kg/injection, schedule: Q01DX009 (ip), vehicle: Klucel (hydroxypropylcellulose) (HPC) 97 % of control | dose: 9.0 mg/kg/injection, schedule: Q01DX009 (ip), vehicle: Klucel (hydroxypropylcellulose) (HPC) 90 % of control | dose: 18.0 mg/kg/injection, schedule: Q01DX009 (ip), vehicle: Klucel (hydroxypropylcellulose) (HPC) 90 % of control | dose: 36.0 mg/kg/injection, schedule: Q01DX009 (ip), vehicle: Klucel (hydroxypropylcellulose) (HPC) 98 % of control | [11] 102 % of control | [12] 102 % of control | dose: 200.0 mg/kg/injection, schedule: Q01DX009 (ip), vehicle: saline 102 % of control | dose: 400.0 mg/kg/injection, schedule: Q01DX009 (ip), vehicle: saline 106 % of control

O=C1NC(=O)C(CCC[n+]2ccccc2)(c2ccccc2)C(=O)N1
inactive: [3] 107 % of control | [4] 107 % of control

CCCCN(CCCC)c1nn[nH]n1
inactive: [6] 89 % of control | [7] 94 % of control | [8] 95 % of control

NC(=NCCCC(NC(=O)c1ccccc1)C(=O)O)NC(=O)c1ccccc1 (stereo not drawn)
inactive: [2] 108 % of control and 91 % of control | [3] 100 % of control and 90 % of control | [4] 93 % of control and 96 % of control | [5] 86 % of control and 97 % of control

CC1OC(Sc2ncc[nH]2)C(O)C(O)C1O (stereo not drawn)
inactive: dose: 60.0 mg/kg/injection, schedule: Q01DX005 (ip), vehicle: saline 95 % of control | dose: 120.0 mg/kg/injection, schedule: Q01DX005 (ip), vehicle: saline 94 % of control | dose: 240.0 mg/kg/injection, schedule: Q01DX005 (ip), vehicle: saline 100 % of control

O=c1c(N=Nc2ccccc2)c[nH]n1-c1ccccc1
inactive: dose: 62.5 mg/kg/injection, schedule: Q01DX009 (ip), vehicle: saline with Tween-80 97 % of control | dose: 125.0 mg/kg/injection, schedule: Q01DX009 (ip), vehicle: saline with Tween-80 97 % of control | dose: 250.0 mg/kg/injection, schedule: Q01DX009 (ip), vehicle: saline with Tween-80 94 % of control

O=C1CCC(c2n[nH]c(=S)n2-c2ccccc2)N1 (stereo not drawn)
inactive: [13] 100 % of control | [14] 97 % of control | [15] 94 % of control

Nc1ccccc1SC1CC(=O)N(c2ccc(Cl)cc2)C1=O (stereo not drawn)
inactive: [4] 105 % of control | [5] 110 % of control | dose: 400.0 mg/kg/injection, schedule: Q01DX009 (ip), vehicle: saline with Tween-80 100 % of control

O=C1c2ccc(-c3ccccc3)cc2C(=O)c2cc3c(cc21)OCO3
inactive: dose: 7.5 mg/kg/injection, schedule: Q01DX005 (ip), vehicle: saline with Tween-80 110 % of control | dose: 15.0 mg/kg/injection, schedule: Q01DX005 (ip), vehicle: saline with Tween-80 100 % of control | dose: 30.0 mg/kg/injection, schedule: Q01DX005 (ip), vehicle: saline with Tween-80 92 % of control
